Experimental data published in US20100087546A1, “USE OF DIMETHYL SULFONE (MSM) TO REDUCE HO[…]” (BIOGENIC INNOVATIONS, LLC, priority 2005, published 2010).
“Also recorded” adds a separate entry of the source.

Assays:
Type in all cases: in vivo, human
[1] = test system: osteoarthritis pain of the knee; assay: 12-week randomized, double-blind, placebo-controlled trial in osteoarthritis of the knee (WOMAC pain and physical function); conditions: 3 g twice a day (6 g/day) for 12 weeks, oral, OA of the knee, versus placebo
From the text: (§1) In 2005, Applicant commissioned a study to determine the efficacy of dimethyl sulfone in the treatment of pain and physical function impairment due to osteoarthritis. The results of the study are published in Kim, et al, Efficacy of methylsulfonylmethane (MSM) in osteoarthritis pain of the knee: a pilot clinical trial. OsteoArthritis and Cartilage, herein incorporated by reference in its entirety. Patients were given dosage of 6 g of dimethyl sulfone (Distilled MSM microprill (OptiMSM®, Cardinal Nutrition, Vancouver, Wash.)) per day in a stepwise approach. In week 1, dosages started with 2 g/day in two divided doses for 3 days, and then increased to 4 g/day for 4 days. Week 2, increased to 6 g/day. In the control group, a placebo was administered that consisted of inert ingredients and that was indistinguishable in color, size and taste from the dimethyl sulfone.
In a study directed by Applicant or its related affiliate, and as reported in Kim et al (published in 2006), herein incorporated by reference in its entirety, the effects of dimethyl sulfone on OA of the knee were evaluated. Qualified patients (n=50) were as-signed to MSM (n=25) or placebo (n=25) in a 12-week randomized, double-blind, placebo-controlled trial using computer-generated random numbers (FIG. 1).
At week 1, subjects were administered 2 g/day in two divided doses for 3 days, and then increased to 4 g/day for 4 days. […]

malondialdehyde (MDA) = assay: Urine malondialdehyde (MDA) measured at baseline and 12 weeks in the 2005 osteoarthritis study; conditions: 6 g/day, baseline versus 12 weeks
From the text: as §1
(§2) During the 2005 osteoarthritis study, described above, dimethyl sulfone's potential activities were also evaluated. Serum homocysteine, high sensitive C-reactive protein (CRP), erythrocyte sedimentation rate (ESR), and urine malondialdehyde (MDA) were measured at baseline and 12 weeks.
The combined decreases in homocysteine and urine MDA during the 2005 osteoarthritis study supports the role of dimethyl sulfone in metabolic processes requiring methylation, such as antioxidant capacities. […]

[2] = 2008 acute oral dosing study, pharmacokinetic blood draws (serum dimethyl sulfone levels)
Method: In a study directed by Applicant or its related affiliate in 2008, six participants received three doses of dimethyl sulfone at three acute test visits spaced one week apart. Subjects were monitored for four hours post dose, with pharmacokinetic (PK) and phamacodynamic blood draws at 0, 45, 90, 135, 180 and 240 minutes post dosing. Subjects also provided a 24-hour post-dose urine collection for assay of dimethyl sulfone and sulfate levels.
Rough estimates have been obtained for the half times of absorption (½ hour) and elimination (8 hours).

homocysteine = assay: Serum homocysteine measured at baseline and 12 weeks in the 2005 osteoarthritis study; conditions: 6 g/day, baseline versus 12 weeks, FIG. 2
From the text: as §1, §2
Since dimethyl sulfone is a putative methyl donor, it was believed that dimethyl sulfone may act as a co-factor in reducing homocysteine levels. […]

[3] = blood draws 0-240 minutes post dosing
[4] = six participants, rough estimate

With dimethyl sulfone the “symptoms of pain and physical function (WOMAC subscales)” value [1] was “produced improvement in two of the three WOMAC subscales, pain and physical function”, the “symptoms of pain and physical function (WOMAC subscales)” value ([1]; listed as dimethyl sulfone) was “improved symptoms of pain and physical function” and the “urine MDA” value (malondialdehyde (MDA)) was “decreases”. For the same substance, the “absorption from the upper gastrointestinal tract (serum level pattern)” value [2, 3] was “fairly rapid absorption from the upper gastrointestinal tract (within an hour)”, the “elimination from the bloodstream (serum level pattern)” value [2, 3] was “slower elimination from the bloodstream (over the course of one or two days)” and the “half time of absorption” value [2, 4] was “½”. The “half time of elimination” value [2, 4] was roughly 8 h and the serum homocysteine levels (homocysteine) was “significantly decreased; also recorded: decreases”.
